Results as given in paper PMC4056445 (Journal of ethnopharmacology, 2011).

Tests used:
PDE6 = target: T1, PDE6 (Gallus gallus, UniProt P52731); assay: PDE6 inhibition, two-step radioactive [3H]cGMP assay; type: biochemical, chicken
T1 sequence (P52731 1-859 limits assumed): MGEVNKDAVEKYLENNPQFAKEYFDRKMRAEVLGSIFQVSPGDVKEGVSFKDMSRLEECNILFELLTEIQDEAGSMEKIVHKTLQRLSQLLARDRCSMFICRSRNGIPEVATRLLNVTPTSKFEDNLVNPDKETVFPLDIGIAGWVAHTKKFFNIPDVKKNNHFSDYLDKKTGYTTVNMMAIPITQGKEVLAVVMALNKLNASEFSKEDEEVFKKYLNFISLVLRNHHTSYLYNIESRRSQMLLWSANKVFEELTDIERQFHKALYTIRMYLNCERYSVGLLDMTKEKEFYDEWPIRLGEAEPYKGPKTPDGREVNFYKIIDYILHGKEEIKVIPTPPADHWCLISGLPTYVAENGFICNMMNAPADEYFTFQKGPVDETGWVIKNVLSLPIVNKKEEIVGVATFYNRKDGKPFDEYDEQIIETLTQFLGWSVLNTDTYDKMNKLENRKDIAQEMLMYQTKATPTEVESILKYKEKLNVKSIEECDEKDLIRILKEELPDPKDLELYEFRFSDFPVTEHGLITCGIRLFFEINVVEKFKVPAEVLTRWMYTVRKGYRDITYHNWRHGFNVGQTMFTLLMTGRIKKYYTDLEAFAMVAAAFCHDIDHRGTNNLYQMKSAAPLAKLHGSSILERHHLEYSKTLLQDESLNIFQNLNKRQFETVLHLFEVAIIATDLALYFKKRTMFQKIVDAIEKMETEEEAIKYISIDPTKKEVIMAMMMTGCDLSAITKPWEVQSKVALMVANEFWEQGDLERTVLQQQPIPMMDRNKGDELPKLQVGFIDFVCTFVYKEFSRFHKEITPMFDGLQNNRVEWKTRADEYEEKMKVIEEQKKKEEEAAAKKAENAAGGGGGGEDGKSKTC

PDE5 = PDE5 (Mus musculus, UniProt Q8CG03); assay: PDE5 inhibition, two-step radioactive [3H]cGMP assay; type: biochemical; conditions: for IC50 ratio PDE6/PDE5: pure compounds, selectivity on PDE5 over PDE6

| Compound | IC50 (PDE6) [µM] | inhibition at 10 µM (PDE6; read-out: % Inhibitory activity at 10 μM PDE6, final concentration 10 μM, n = 3) [%] | IC50 (PDE5) [µM] | IC50 ratio PDE6/PDE5 (PDE5) | inhibition at 10 µM (PDE5; read-out: % Inhibitory activity at 10 μM PDE5, final concentration 10 μM, n = 3) [%] |
| --- | --- | --- | --- | --- | --- |
| COc1cc(OC)c2c(=O)cc(-c3ccccc3)oc2c1 [Compound 2, 5,7-dimethoxyflavone] | 39.5 ± 1 | > 35 | 10.6 ± 2.09 | 3.71 | > 35 |
| OCCN(CCO)c1nc(N2CCCCC2)c2nc(N(CCO)CCO)nc(N3CCCCC3)c2n1 [Dipyridamole, dipyridamole] | 0.231 ± 0.03 | – | 1.46 ± 0.81 | – | – |
| CCCc1nn(C)c2c(=O)[nH]c(-c3cc(S(=O)(=O)N4CCN(C)CC4)ccc3OCC)nc12 [Sildenafil, sildenafil] | 0.033 ± 0.01 | – | 0.0068 | 4.85 | – |
